This is an account of results in patent US6521222B1, “Inorganic/organic complexes for reducing skin irritation” (Societe L'Oreal S.A., priority 1999, dated 2003).

The test system of series [1] is keratinocytes of Episkin human epidermis reconstituted in vitro. The series is described as follows: Cytotoxicity (MTT test) on Episkin reconstructed skin after applying compositions. The series is classed as cell-based. The following applies: 0.3% (w/V) 5-n-octanoylsalicylic acid added to composition A. How it is done: (§1) The Episkin system is a model of human epidermis reconstituted in vitro, which was manufactured by the company Episkin. The epidermis contained only one cell type: keratinocytes. The keratinocytes were seeded onto a dermis equivalent which was composed of various types of collagen.
(§2) After a period of proliferation of the keratinocytes immersed in the culture medium, the system was raised up to the air/liquid interface.
(§3) The assignee hereof has studied the cytotoxicity of the keratinocytes (3-(4,5-dimethylthiazol-2-yl)-2,5-diphenyltetrazolium bromide test) after applying to this reconstructed skin model various compositions in a proportion of 150 mg/cm^2, and maintaining same in an incubator at 37° C./5% CO2 for a period of 18 hours. Each composition was tested on two epidermides of 1.13 cm^2.
(§4) The basic composition A was:
(§5) The other compositions tested corresponded to this composition A to which 5-n-octanoylsalicylic acid, alone or in admixture with a compound of formula (I) according to the invention, was added.
(§6) The measurement of cell viability was carried out immediately after rinsing of the compositions with phosphate buffered saline (PBS).

Assay in series [2]: as above
The series is classed as cell-based, human. The following applies: human; composition A + 0.5% (w/V) 5-n-octanoylsalicylic acid, no compound of formula (I); 150 mg/cm^2, 18 hours, 37° C./5% CO2; read-out: % of cell viability. How it is done:
as §1, §2, §3, §4, §5, §6

In the case of `CCCCCCCC(=O)c1ccc(O)c(C(=O)O)c1` [5-n-octanoylsalicylic acid], the “cytotoxicity of the composition” value in series [1] is on record as “cytotoxic”. In addition, in series [2], the viability at 18 h, 0.5 % (w/V) stood at 7.8%.
